From patent US20230218577A1, “USE OF HEAT SHOCK PROTEIN INHIBITORS FOR THE TREATMENT OF NEURODEVELOPMENTAL DISORDERS” (The Children's Medical Center Corporation, priority 2020, published 2023)

What was measured:
Type in all cases: cell-based, rat
[1] = system: cilia (ACIII) in Tsc2-sh hippocampal neurons; experiment: cilia^HCA (GFP+ ACIII+ neurons) in Tsc2-sh neurons; details: for ciliation, acute effect: 24 hrs at DIV20, concentrations that inhibited mTORC1 (8.5 μM 17-AGG, 9 μM GA, 5.5 μM rapamycin); for rescue of cilia at later ages in culture: four-day treatment between DIV16-20, endpoint DIV20
Source text: To investigate how mTORC1 dysregulation due to neuronal TSC loss affected ciliation, High Content image-based Assays (HCAs) were developed for unbiased quantification of cilia and mTORC1 activity (hereafter cilia^HCA and mTORC1^HCA) in primary neurons. As an in vitro model of TSC, rat hippocampal neurons transduced with lentiviral vectors (LV) expressing a short hairpin RNA (shRNA) were used directed against either the Tsc2 (Tsc2-sh) or the luciferase gene as a control (ctrl-sh) tagged with GFP. LV-mediated Tsc2 knockdown recapitulates several in vivo manifestations observed in mouse models of TSC (Di Nardo et al., Tuberous sclerosis complex activity is required to control neuronal stress responses in an mTOR-dependent manner; J Neurosci 29, 5926-5937 (2009); Di Nardo et al., Neuronal Tsc1/2 complex controls autophagy through AMPK-dependent regulation of ULK1; Hum Mol Genet 23, 3865-3874 (2014); Ebrahimi-Fakhari et al., Impaired Mitochondrial Dynamics and Mitophagy in Neuronal Models of Tuberous Sclerosis Complex; Cell Rep 17, 1053-1070 (2016); Ercan et al., Neuronal CTGF/CCN2 negatively regulates myelination in a mouse model of tuberous sclerosis complex; The Journal of experimental medicine 214, 681-697 (2017); Nie et al., The Stress-Induced Atf3-Gelsolin Cascade Underlies Dendritic Spine Deficits in Neuronal Models of Tuberous Sclerosis Complex; J Neurosci 35, 10762-10772 (2015); Nie et al., Tsc2-Rheb signaling regulates EphA-mediated axon guidance. Nat Neurosci 13, 163-172 (2010)). In vitro phenotypes include robust TSC2 protein downregulation and mTORC1 activation as shown by the time course of increased phosphorylation of ribosomal protein S6 at serine 240/244 (pS6) (FIGS. 8A-B). Both the cilia^HCA and mTORC1^HCA were optimized as imaged-based assays, where cilia and mTORC1 activity was monitored by immunofluorescent staining of ACIII to identify cilia and pS6 as a proxy of mTORC1 activation (FIGS. 8C-F). Neurons were transduced in culture at day in vitro (DIV) 1, and cilia and mTORC1 activity were assessed in a time course experiment at DIV2, 5, 7, 13, and 20 (FIG. 2A). LV-infected neurons with cilia or with phosphorylated S6 (GFP^+ ACIII^+ and GFP^+pS6^+ respectively) were identified by automated algorithms to detect subcellular structures and their co-localization specifically optimized for each assay. In control neurons, cilia development was observed between DIV2-5, which remained stable between DIV7 and DIV20 (FIGS. 2B, D). […] Reduced ciliation was validated by manual imaging and quantification of LV-infected neurons co-labeled with ACIII/centrin (FIGS. 8G-H). No changes in size or ACIII intensity were detected in the remaining cilia of the Tsc2-sh neurons (FIGS. 8I-J).
Rat hippocampal neurons were plated at a density of 20,000/well in 96-well plates (Greiner #655090) coated with Poly-D-Lysine (PDL) at 20 μg/ml. Neurons were transduced with lentivirus and processed for immunofluorescent staining at endpoint assay by fixation with 4% PFA followed by permeabilization in ice cold 100% Methanol. Neurons were then washed 3 times in PBS/0.05% Tween (PBT) containing 50 mM glycine and blocked in 2% bovine serum albumin (Sigma) in PBT (PBT/Block) at RT. For consistent and robust identification of the LV-infected neurons, cultures of both the cilia^HCA and mTORC1^HCA were stained with GFP antibody and co-labeled with ACIII or pS6 for the identification of respectively cilia and mTORC1 activity. Primary antibodies were incubated in PBT/Block overnight. The following day, neurons were washed in PBT and incubated with secondary antibodies followed by Hoechst staining. After washing with PBT, neurons were kept in PBS buffer. Aside from primary and secondary antibody administration, all the washing for immunofluorescent staining was done using the Agilent bravo automated liquid handler. […]

Tsc2-sh neurons = experiment: Toxicity: number of nuclei per field in Tsc2-sh neurons; details: four days (DIV9-13), nuclei stained at DIV13
Procedure: HSP90 inhibitors were tested to determine their effect on ciliation in TSC2-deficient neurons. Tsc2 was knocked down using an shRNA in primary rat neurons. The neurons were then treated with different doses of either CUDC-305 or NPV-HSP-990. To assess toxicity for CUDC-305, Tsc2-sh neurons were treated with increasing concentrations (6 nM, 12.5 nM, 25 nM, 50 nM, 100 nM, 200 nM, 400 nM) of CUDC-305 for four days (DIV9-13) and then stained for nuclei at DIV13 to determine the number of nuclei per field. […] The effect of ciliation of Tsc2-sh neurons after treatment with CUDC-305 was then examined.
Another HSP90 inhibitor, NPV-HSP-990, was examined for its effect on ciliation in TSC2-deficient neurons. To assess toxicity for NPV-HSP-990, Tsc2-sh neurons were treated with increasing concentrations (0.05 nM, 0.16 nM, 0.5 nM, 1.5 nM, 4.4 nM, 13.3 nM, 40 nM) of NPV-HSP-990 for four days (DIV9-13) and then stained for nuclei at DIV 13 to determine the number of nuclei per field.

[2] = system: cilia (ACIII) in ctrl-sh hippocampal neurons; experiment: cilia^HCA in ctrl-sh neurons; details: four-day dose curve between DIV9-13
Source text: To investigate how mTORC1 dysregulation due to neuronal TSC loss affected ciliation, High Content image-based Assays (HCAs) were developed for unbiased quantification of cilia and mTORC1 activity (hereafter cilia^HCA and mTORC1^HCA) in primary neurons. As an in vitro model of TSC, rat hippocampal neurons transduced with lentiviral vectors (LV) expressing a short hairpin RNA (shRNA) were used directed against either the Tsc2 (Tsc2-sh) or the luciferase gene as a control (ctrl-sh) tagged with GFP. […] Both the cilia^HCA and mTORC1^HCA were optimized as imaged-based assays, where cilia and mTORC1 activity was monitored by immunofluorescent staining of ACIII to identify cilia and pS6 as a proxy of mTORC1 activation (FIGS. 8C-F). Neurons were transduced in culture at day in vitro (DIV) 1, and cilia and mTORC1 activity were assessed in a time course experiment at DIV2, 5, 7, 13, and 20 (FIG. 2A). […] Reduced ciliation was validated by manual imaging and quantification of LV-infected neurons co-labeled with ACIII/centrin (FIGS. 8G-H). No changes in size or ACIII intensity were detected in the remaining cilia of the Tsc2-sh neurons (FIGS. 8I-J). […]

[3] = four days (DIV9-13), any dose tested

COc1cccc(-c2cc(F)ccc2[C@H]2Cc3nc(N)nc(C)c3C(=O)N2)n1 [NPV-HSP-990, (R)-2-amino-7-((R)-4-fluoro-2-(6-methoxypyridin-2-yl)phenyl)-4-methyl-7,8-dihydropyrido[4,3-d]pyrimidin-5(6H)-one]
ciliation [1, 3]: not observed | doses at which the number of nuclei began to reduce (suggestive of toxicity) (Tsc2-sh neurons): above 4.4 nM

C=CCNC1=C2C[C@@H](C)C[C@H](OC)[C@H](O)[C@@H](C)/C=C(\C)[C@H](OC(N)=O)[C@@H](OC)C=C/C=C(\C)C(=O)NC(=CC1=O)C2=O [17-AGG, 3 S,5S,6R,7S,8E,10R,11S,12E,14E)-21-(allylamino)-6-hydroxy-5,11-dimethoxy-3,7,9,15-tetramethyl-16,20,22-trioxo-17-azabicyclo[16.3.1]docosa-8,12,14,18,21-pentaen-10-yl] carbamate]
ciliation, acute effect [1]: Neither of the Hsp90 inhibitors nor rapamycin rescued ciliation | EC50 ([1]; Rattus norvegicus, Hippocampal neuron, treatment between DIV9-13, read-out: EC50^cilia (cilia rescue)): 15 nM | rescue of cilia at later ages in culture [1]: Neither rapamycin nor a four-day 17-AGG treatment regimen was able to rescue the cilia | ciliation [2]: did not increase

CN(C)c1cc2c(cc1Sc1nc3c(N)nccc3n1CCNCC(C)(C)C)OCO2 [CUDC-305, 4-amino-2-[[6-(dimethylamino)-1,3-benzodioxol-5-yl]thio]-N-(2,2-dimethylpropyl)-1H-imidazo[4,5-c]pyridine-1-ethanamine]
ciliation [1, 3]: No increase | doses at which the number of nuclei began to reduce (suggestive of toxicity) (Tsc2-sh neurons): above 100 nM

CO[C@H]1C[C@@H]2CC[C@@H](C)[C@@](O)(O2)C(=O)C(=O)N2CCCC[C@H]2C(=O)O[C@H]([C@H](C)C[C@@H]2CC[C@@H](O)[C@H](OC)C2)CC(=O)[C@H](C)/C=C(\C)[C@@H](O)[C@@H](OC)C(=O)[C@H](C)C[C@H](C)/C=C/C=C/C=C/1C [rapamycin]
ciliation, acute effect [1]: Neither of the Hsp90 inhibitors nor rapamycin rescued ciliation | rescue of cilia at later ages in culture [1]: Neither rapamycin nor a four-day 17-AGG treatment regimen was able to rescue the cilia | ciliation ([1]; rapamycin 20 nM acute (1 day) treatment): no effect | ciliation ([1]; rapamycin 20 nM for eight days between DIV5-13): significant increase | ciliation ([1]; rapamycin 20 nM for four days between DIV9-13): significant increase | ciliation ([1]; rapamycin 20 nM, later ages (DIV20) in culture): no effect
